Earlier results in US11472782B2, “RIP1 inhibitory compounds and methods for making and using the same” (priority 2018, dated 2022).

Tested on: TNF-alpha induced hypothermia
Settings: mouse, dose of 30 mg/kg, according to WO 2014/125444

SMILES: CN1C(=O)[C@@H](NC(=O)c2nnc(Cc3ccccc3)[nH]2)COc2ccccc21 [comparative compound, (S)-5-benzyl-N-(5-methyl-4-oxo-2,3,4,5-tetrahydrobenzo[b][1,4]oxazepin-3-yl)-4H-1,2,4-triazole-3-carboxamide]
- inhibition of TNF-alpha induced hypothermia: 93%
